Test results reported in patent publication US20260125382A1, “COMPOUNDS FOR INHIBITING OR DEGRADING CDK2 AND/OR CDK9 AND MEDICINAL USE THEREOF” (KOREA RESEARCH INSTITUTE OF CHEMICAL TECHNOLOGY, priority 2022, published 2026).

Tests used:
CDK2 = target: T1, CDK2 (Homo sapiens, UniProt P24941); assay: CDK protein degradation activity (Western blotting), CDK2; format: cell-based; conditions: MDA-MB-231 cells, 16 hours, Western blot
T1 construct: endogenous in cells; host or cells: MDA-MB-231
Experimental: (§1) In order to evaluate the CDK protein degradation activity of the compounds according to the present invention, the following experiment was conducted.
(§2) MDA-MB-231 cells were seeded at 5×10^5 cells per well in a 6-well plate. The next day, the compounds were treated in each well to achieve final concentrations of 100 nM, 1 μM, and 10 μM. For the control group, an equal amount of DMSO was treated in the well as the compound. After 16 hours of treatment, cells were collected, and cell lysates were prepared using Triton X-100 lysis buffer (50 mM HEPES, pH 7.5, 40 mM NaCl, 1% Triton X-100, 1 mM EDTA, 1 mM EGTA, 10 mM pyrophosphate, 10 mM β-glycerophosphate, 50 mM NaF, 1 mM NaVO4, protease inhibitor). Cell lysates were quantified and separated by size using sodium dodecyl sulfate-polyacrylamide gel electrophoresis (SDS-PAGE). Western blotting was then performed using antibodies that recognize CDK2, CDK9, and tubulin, respectively. The results obtained by Western blotting were quantitatively analyzed using the ImageJ program, and representative images according to the experimental results are shown in FIG. 1.

CDK9 = target: T2, CDK9 (Homo sapiens, UniProt P50750); assay: CDK protein degradation activity (Western blotting), CDK9; format: cell-based; conditions: MDA-MB-231 cells, 16 hours, Western blot
T2 construct: endogenous in cells; host or cells: MDA-MB-231
Experimental: as §1, §2

T2 sequence (P50750 whole entry): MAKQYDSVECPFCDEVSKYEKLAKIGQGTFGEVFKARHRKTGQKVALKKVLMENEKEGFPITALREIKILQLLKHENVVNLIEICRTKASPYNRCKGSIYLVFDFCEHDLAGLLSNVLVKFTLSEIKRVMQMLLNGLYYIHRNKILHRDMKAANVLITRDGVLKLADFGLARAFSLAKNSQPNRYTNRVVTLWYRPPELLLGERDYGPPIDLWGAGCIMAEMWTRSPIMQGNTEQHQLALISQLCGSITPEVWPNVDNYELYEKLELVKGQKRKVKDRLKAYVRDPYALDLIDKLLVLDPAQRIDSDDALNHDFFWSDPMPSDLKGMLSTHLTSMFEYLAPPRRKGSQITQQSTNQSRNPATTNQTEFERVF

| Compound | Enzyme degradation CDK2 (% remaining) @ 0.1 μM (CDK2) | Enzyme degradation CDK2 (% remaining) @ 1 μM (CDK2) | Enzyme degradation CDK2 (% remaining) @ 10 μM (CDK2) | Enzyme degradation CDK9 (% remaining) @ 0.1 μM (CDK9) | Enzyme degradation CDK9 (% remaining) @ 1 μM (CDK9) | Enzyme degradation CDK9 (% remaining) @ 10 μM (CDK9) |
| --- | --- | --- | --- | --- | --- | --- |
| Cc1cccc(C(=O)NC2CC(n3cnc4c(NC5CCN(C(=O)CC6CCN(c7ccc8c(c7)C(=O)N([C@H]7CCC(=O)NC7=O)C8=O)CC6)CC5)ncnc43)C2)n1 (stereo partly drawn) [Compound 53, N-((1s,3s)-3-(6-((1-(2-(1-(2-(2,6-dioxopiperidin-3-yl)-1,3-dioxoisoindolin-5-yl)piperidin-4-yl)acetyl)piperidin-4-yl)amino)-9H-purin-9-yl)cyclobutyl)-6-methylpicolinamide] | 90% | 80% | 70% | 90% | 90% | 10% |
| Cc1cccc(C(=O)N[C@H]2C[C@H](n3cnc4c(NCC5CCN(CC6CCN(C(=O)CNc7cccc8c7C(=O)N(C7CCC(=O)NC7=O)C8=O)CC6)CC5)ncnc43)C2)n1 (stereo partly drawn) [Compound 75, N-((1r,3r)-3-(6-(((1-((1-((2-(2,6-dioxopiperidin-3-yl)-1,3-dioxoisoindolin-4-yl)glycyl)piperidin-4-yl)methyl)piperidin-4-yl)methyl)amino)-9H-purin-9-yl)cyclobutyl)-6-methylpicolinamide] | 20% | 10% | 30% | 0% | 0% | 10% |
| Cc1cccc(C(=O)NC2CC(n3cnc4c(NCC5CCN(CC6CCN(c7ccc8c(c7)C(=O)N([C@@H]7CCC(=O)NC7=O)C8=O)CC6)CC5)ncnc43)C2)n1 (stereo partly drawn) [Compound 76, N-((1r,3r)-3-(6-(((1-((1-(2-(2,6-dioxopiperidin-3-yl)-1,3-dioxoisoindolin-5-yl)piperidin-4-yl)methyl)piperidin-4-yl)methyl)amino)-9H-purin-9-yl)cyclobutyl)-6-methylpicolinamide] | 100/100/100% | 100/100/100% | 100/100/100% | 30% | 20% | 10% |
| Cc1cccc(C(=O)NC2CC(n3cnc4c(Nc5ccc(N6CCN(C(=O)COc7ccc8c(c7)C(=O)N([C@H]7CCC(=O)NC7=O)C8=O)CC6)cc5)ncnc43)C2)n1 (stereo partly drawn) [Compound 84, N-((1s,3s)-3-(6-((4-(4-(2-((2-(2,6-dioxopiperidin-3-yl)-1,3-dioxoisoindolin-5-yl)oxy)acetyl)piperazin-1-yl)phenyl)amino)-9H-purin-9-yl)cyclobutyl)-6-methylpicolinamide] | 50% | 30% | 20% | 70% | 30% | 10% |
| Cc1cccc(C(=O)NC2CC(n3cnc4c(Nc5ccc(N6CCN(C(=O)COc7cccc8c7C(=O)N([C@H]7CCC(=O)NC7=O)C8=O)CC6)cc5)ncnc43)C2)n1 (stereo partly drawn) [Compound 85, N-((1s,3s)-3-(6-((4-(4-(2-((2-(2,6-dioxopiperidin-3-yl)-1,3-dioxoisoindolin-4-yl)oxy)acetyl)piperazin-1-yl)phenyl)amino)-9H-purin-9-yl)cyclobutyl)-6-methylpicolinamide] | 70% | 60% | 50% | 60% | 40% | 30% |
| Cc1cccc(C(=O)N[C@H]2C[C@@H](n3cnc4c(Nc5ccc(N6CCN(C(=O)CNc7cccc8c7C(=O)N([C@H]7CCC(=O)NC7=O)C8=O)CC6)cc5)ncnc43)C2)n1 [Compound 87, N-((1s,3s)-3-(6-((4-(4-((2-(2,6-dioxopiperidin-3-yl)-1,3-dioxoisoindolin-4-yl)glycyl)piperazin-1-yl)phenyl)amino)-9H-purin-9-yl)cyclobutyl)-6-methylpicolinamide] | 90% | 70% | 50% | 50% | 50% | 40% |
| Cc1cccc(C(=O)N[C@H]2C[C@@H](n3cnc4c(Nc5ccc(N6CCN(CC7CCN(c8ccc9c(c8)C(=O)N([C@H]8CCC(=O)NC8=O)C9=O)CC7)CC6)cc5)ncnc43)C2)n1 [Compound 88, N-((1s,3s)-3-(6-((4-(4-((1-(2-(2,6-dioxopiperidin-3-yl)-1,3-dioxoisoindolin-5-yl)piperidin-4-yl)methyl)piperazin-1-yl)phenyl)amino)-9H-purin-9-yl)cyclobutyl)-6-methylpicolinamide] | 20/20/20% | 20/20/20% | 20/20/20% | 0/0/0% | 0/0/0% | 0/0/0% |
| Cc1cccc(C(=O)NC2CC(n3cnc4c(Nc5ccc(N6CCN(CC7CCN(c8cccc9c8C(=O)N([C@H]8CCC(=O)NC8=O)C9=O)CC7)CC6)cc5)ncnc43)C2)n1 (stereo partly drawn) [Compound 89, N-((1s,3s)-3-(6-((4-(4-((1-(2-(2,6-dioxopiperidin-3-yl)-1,3-dioxoisoindolin-4-yl)piperidin-4-yl)methyl)piperazin-1-yl)phenyl)amino)-9H-purin-9-yl)cyclobutyl)-6-methylpicolinamide] | 70% | 50% | 90% | 10% | 0% | 0% |
| Cc1cccc(C(=O)N[C@H]2C[C@@H](n3cnc4c(Nc5ccc(N6CCN(CC7CCN(C(=O)COc8ccc9c(c8)C(=O)N([C@H]8CCC(=O)NC8=O)C9=O)CC7)CC6)cc5)ncnc43)C2)n1 [Compound 90, N-((1s,3s)-3-(6-((4-(4-((1-(2-((2-(2,6-dioxopiperidin-3-yl)-1,3-dioxoisoindolin-5-yl)oxy)acetyl)piperidin-4-yl)methyl)piperazin-1-yl)phenyl)amino)-9H-purin-9-yl)cyclobutyl)-6-methylpicolinamide] | 40% | 20% | 10% | 0/0/0% | 0/0/0% | 0/0/0% |
| Cc1cccc(C(=O)NC2CC(n3cnc4c(Nc5ccc(N6CCN(CC7CCN(C(=O)CNc8ccc9c(c8)C(=O)N([C@H]8CCC(=O)NC8=O)C9=O)CC7)CC6)cc5)ncnc43)C2)n1 (stereo partly drawn) [Compound 92, N-((1s,3s)-3-(6-((4-(4-((1-((2-(2,6-dioxopiperidin-3-yl)-1,3-dioxoisoindolin-5-yl)glycyl)piperidin-4-yl)methyl)piperazin-1-yl)phenyl)amino)-9H-purin-9-yl)cyclobutyl)-6-methylpicolinamide] | 40% | 20% | 20% | 10% | 0% | 0% |
| Cc1cccc(C(=O)NC2CC(n3cnc4c(Nc5ccc(N6CCN(CC7CCN(C(=O)CNc8cccc9c8C(=O)N([C@H]8CCC(=O)NC8=O)C9=O)CC7)CC6)cc5)ncnc43)C2)n1 (stereo partly drawn) [Compound 93, N-((1s,3s)-3-(6-((4-(4-((1-((2-(2,6-dioxopiperidin-3-yl)-1,3-dioxoisoindolin-4-yl)glycyl)piperidin-4-yl)methyl)piperazin-1-yl)phenyl)amino)-9H-purin-9-yl)cyclobutyl)-6-methylpicolinamide] | 0% | 10% | 10% | 0/0/0% | 0/0/0% | 0/0/0% |
| Cc1cccc(C(=O)N[C@H]2C[C@@H](n3cnc4c(NCc5cccc(OCC6CCN(C(=O)COc7ccc8c(c7)C(=O)N([C@H]7CCC(=O)NC7=O)C8=O)CC6)c5)ncnc43)C2)n1 [Compound 94, N-((1s,3s)-3-(6-((3-((1-(2-((2-(2,6-dioxopiperidin-3-yl)-1,3-dioxoisoindolin-5-yl)oxy)acetyl)piperidin-4-yl)methoxy)benzyl)amino)-9H-purin-9-yl)cyclobutyl)-6-methylpicolinamide] | 80% | 60% | 90% | 50% | 10% | 20% |
